Data set [1] concerns BT-474 cells. In words: In vitro antitumor activity against ErbB2-amplified BT-474 cells. The format is cell-based. As to the method: FIG. 9 illustrates validation of NSC-176328 antitumor selectivity. ErbB2-positive human cancer cells are 8.5-fold more sensitive to NSC-176328 than a panel of ErbB2-negative cancer cells. In vitro antitumor activity against ErbB2-amplified BT-474 cells of free and liposome- or immunoliposome-encapsulated Ellipticine (NSC-176328). 6-3-aminopropylellipticine (AE; NSC 176328) was administered to cell cultures as free drug or after being encapsulated into liposomes (L-AE) or immunoliposomes (ILS-AE); the former prevent escape and cell exposure to free AE, the latter specifically internalize into and release AE within ErbB2 overexpressing tumor cells.

Data set [2] concerns NCI panel of 60 human cancer cell lines. As to conditions: free drug, cell lines not overexpressing ErbB2; cited from earlier work.
Data set [3] relates to ErbB2 transcript. In words: Northern blot of ErbB2 transcript levels in ErbB2 overexpressing breast cancer cells. The format is cell-based, human. As for the experimental part:
The conserved and singular DNase I hypersensitivity sites found in the proximal ErbB2 and ESX promoters (12,15) were assayed as before (12). Briefly, following culture treatment of cells, nuclei isolated by mild detergent lysis in a buffer containing 10 mM Hepes pH 7.9, 1.5 mM MgCl2, 10 mM KCl, 0.4% NP-40, 10% glycerol and 1 mM DTT. Partial DNase I digestions were carried out by varying DNase I treatment times (0-15 minutes at 37( ) at a fixed DNase I concentrations (0.5-1.0 units per 10^6 nuclei). After purifying and restricting the DNA, it was electrophoresed through 0.7% agarose gels and blotted onto nylon membranes, UV-crosslinked and hybridized with randomly ^32P-labelled ErbB2 and ESX promoter probes, as similarly performed for routine Southern blotting. For Northern blotting, total (treated vs. control) cell RNA (10 μg/sample lane) was isolated using TRIzol (Invitrogen) according to manufacturer's specifications, electrophoresed into 1% agarose-formaldehyde gels and transferred onto membranes that were then hybridized with ^32P-labelled ErbB2 and ESX cDNA probes. For transcriptional run-off assays cell nuclei were first isolated from treated and control cells as described for the DNase I studies. Elongatation of initiated nascent RNA chains was performed at 37 (C for 30 minutes using ˜5×10^6 nuclei per reaction in a buffer containing 10 mM Tris pH7.5, 2.5 mM MgCl2, 150 mM KCl, 1 mM DTT, 10% glycerol, 0.5 mM ATP, GTP and CTP, and 100 μCi of [α-^32P]UTP (800 Ci/mmol). Nuclear RNA was purified by the addition of 100 units of RNase-free DNase I (Roche) per reaction for 2 minutes followed by TRIzol processing. Radiolabelled RNA was hybridized (˜4×10^6 cpm) at 68 (C in ExpressHyb (Clontech) for 24 hours to nylon filter membranes previously slotted with 0.5 μg per slot of unlabelled ErbB2 cDNA fragments (from either the transmembrane or C-terminal domains), ESX cDNA fragments, and empty plasmid control, as we have previously described (16). Filters were washed at 64 (C in 0.2 SSC and 0.5% SDS. For Western blotting, whole-cell extracts from control vs. treated cells were boiled in sample loading buffer (1% SDS, 20% glycerol, 100 mM DTT, 50 mM Tris, pH 6.8), gel lanes loaded for constant total protein (15 μg), electrophoresed into 9% sodium dodecyl sulfacte polyacrylamide (SDS-PAGE) gels, transferred onto membranes (Immobilon-P, Millipore), and the protein-bound membranes hybridized with a primary antibody followed by a horseradish peroxidase-conjugated secondary antibody (Sigma), and specific protein bands visualized by chemiluminescent substrate (Pierce), as previously described (10).

The test system of data set [4] is ESX transcript. In words: Northern blot of ESX transcript levels in SKBR3 cells. The format is cell-based, human. The conditions noted are these: 5 hours Act D. As for the experimental part:
The conserved and singular DNase I hypersensitivity sites found in the proximal ErbB2 and ESX promoters (12,15) were assayed as before (12). Briefly, following culture treatment of cells, nuclei isolated by mild detergent lysis in a buffer containing 10 mM Hepes pH 7.9, 1.5 mM MgCl2, 10 mM KCl, 0.4% NP-40, 10% glycerol and 1 mM DTT. Partial DNase I digestions were carried out by varying DNase I treatment times (0-15 minutes at 37( ) at a fixed DNase I concentrations (0.5-1.0 units per 10^6 nuclei). After purifying and restricting the DNA, it was electrophoresed through 0.7% agarose gels and blotted onto nylon membranes, UV-crosslinked and hybridized with randomly ^32P-labelled ErbB2 and ESX promoter probes, as similarly performed for routine Southern blotting. For Northern blotting, total (treated vs. control) cell RNA (10 μg/sample lane) was isolated using TRIzol (Invitrogen) according to manufacturer's specifications, electrophoresed into 1% agarose-formaldehyde gels and transferred onto membranes that were then hybridized with ^32P-labelled ErbB2 and ESX cDNA probes. For transcriptional run-off assays cell nuclei were first isolated from treated and control cells as described for the DNase I studies. […]

Data set [5] deals with RO6 HER2 promoter. In words: Basal promoter activity of MCF-7b stable RO6 populations. As to conditions: 10 nM, 24 hours, serum-free media, clone and polyclonal populations. The format is cell-based, human. As for the experimental part: (§1) Parental cell lines MCF-7, and MDA-453 were transfected with the construct Ro6pGL (FIG. 2) in conjunction with pcMneo construct using lipid-based transfection (Effectene) at a ratio of 20:1 reporter:selectable marker (see, FIG. 4). Monoclonal and polyclonal populations were selected in 0.5 mg/ml G418 over 2 to 4 weeks.
(§2) Reporter activity was assayed as follows: From T-150 or T-75 culture flasks, about […] cells/well were plated into a 96 well plate format for high-throughput screening. 24 hours post plating a test agent e.g. a drug from a combinatorial library, was added to the wells at various concentrations. Certain wells were used as controls (e.g. PBS or DMSO vehicle only). Replicate wells ([…] per drug concentration) were run. 24 hours after addition of the test agent the cells were lysed, a luciferase reagent was added and activity in each well was read using a high-throughput screening plate reader (labsystems Fluoroskan). Parallel plates were run for cell viability using an MTT assay (Sigma).

In data set [6] the test system is RO6 HER2 promoter. In words: Basal promoter activity of MDA-453 stable RO6 polyclonal populations. The format is cell-based, human. As to conditions: 10 nM TPA in DMSO, 8 and 48 hr, presence of serum, compared with DMSO only. As for the experimental part: as §1
Reporter activity was assayed as follows: From T-150 or T-75 culture flasks, about […] cells/well were plated into a 96 well plate format for high-throughput screening. 24 hours post plating a test agent e.g. a drug from a combinatorial library, was added to the wells at various concentrations. Certain wells were used as controls (e.g. PBS or DMSO vehicle only). Replicate wells ([…] per drug concentration) were run. […] Parallel plates were run for cell viability using an MTT assay (Sigma).

Data set [7] concerns ErbB2 promoter. In words: Genomically integrated ErbB2 promoter-luciferase reporter screen in MCF/R06pGL-9 cells. It is filed as cell-based, human. As to conditions: 24 h treatment. As for the experimental part:
as §2
A luciferase reporter plasmid (designated RO6pGL-luc) was constructed by inserting the ˜500 bp SmaI-SmaI fragment of the human ErbB2 proximal promoter (12) into the pGL3Basic plasmid driving a luciferase reporter gene, as has been described (10). R06pGL-luc and a plasmid expressing neomycin phosphotransferase were co-transfected into the MCF-7 cells (ATCC) using Effectene (Qiagen). Cells were selected for stable expression of luciferase and neomycin (G418)-resistance. […] The reaction was quantified by absorbance at 570 nm measured with a microplate reader (Molecular Devices) and the mean (±SD) optical density recorded after normalization by the vehicle treated controls. […]

In brackets after ≈: the same amount, converted by molar mass. Starred links: 1 amine or outer side, 2 acyl side, 3 side chain; linkers in the order of their positions; H or OH if unused. Positions of bridges follow the written chain, without caps; N, C: chain ends. Non-standard residues stand in square brackets, D forms with d. Residues, ends and D or L forms follow the SMILES beside them. Chains are numbered I, II in the order given. Actinocin(9to1) = Cc1c2oc3c(C)ccc(C(=O)[*:1])c3nc-2c(C(=O)[*:2])c(N)c1=O; NMeV = CN[C@H](C(=O)O)C(C)C; Sar = CNCC(=O)O

On to `Cc1c2cnccc2c(C)c2c1c1ccccc1n2CCCN` [AE, 6-3-aminopropylellipticine], for which the “sensitivity of ErbB2-positive vs ErbB2-negative cancer cells” value in data set [1] (BT-474 vs NCI panel of ErbB2-negative cancer cells) turned out to be 8.5 fold. The LC50 (usually the concentration that kills 50% of the test population) in data set [1] (free drug, ErbB2 overexpressing BT-474 cells) was found to be 200 µg/mL (≈ 659 µM). In addition, the “average LC50” value in data set [2] is 1700 µg/mL.

Consider `Cc1c2oc3c(C)ccc(C(=O)N[C@@H]4C(=O)N[C@H](C(C)C)C(=O)N5CCC[C@H]5C(=O)N(C)CC(=O)N(C)[C@@H](C(C)C)C(=O)O[C@@H]4C)c3nc-2c(C(=O)N[C@@H]2C(=O)N[C@H](C(C)C)C(=O)N3CCC[C@H]3C(=O)N(C)CC(=O)N(C)[C@@H](C(C)C)C(=O)O[C@@H]2C)c(N)c1=O` [Act D, actinomycin D] (I: T[dV]P[Sar][NMeV] / II: T[dV]P[Sar][NMeV]; ester I:1-I:C, II:1-II:C; linker I:N-II:N via Actinocin(9to1)), for which the “ErbB2 mRNA level / decay” value in data set [3] (SKBR3 cells, 5 hours treatment, TSA 0.05 or 0.40 μM, Act D 10 μg/ml) is recorded as “only a slight reduction in ErbB2 mRNA level”. Further, in data set [4], the “ESX mRNA level” value is “complete loss of the short-lived ESX mRNA”.

With `CCCCCCCCCCCCCC(=O)O[C@@H]1[C@@H](C)[C@@]2(O)[C@@H](C=C(CO)C[C@]3(O)C(=O)C(C)=C[C@@H]23)[C@@H]2C(C)(C)[C@]12OC(C)=O` [TPA], the basal promoter activity entry in data set [5] is listed as “decreased basal promoter activity”; in data set [6], “no significant effect on basal promoter activity”.

For `C[C@@H]1C[C@@H]([C@H](O)CC2CC(=O)NC(=O)C2)C(=O)[C@@H](C)C1` [cycloheximide], the “effect on TSA induced ErbB2 transcript decay” value in data set [3] (BT-474 or MDA-453 cells (data not shown)) is reported as “no ability to arrest TSA induced ErbB2 transcript decay”. For the same compound, in data set [3] (SKBR3 cells, 50 μg/ml), the “ErbB2 transcript levels in control cells” value was “no effect on ErbB2 transcript levels in control cells” and the “effect on TSA induced accelerated ErbB2 mRNA degradation” value is recorded as “completely inhibited the accelerated ErbB2 mRNA degradation induced by TSA”.

With `CCCC(=O)[O-].[Na+]` [sodium butyrate], the “ErbB2 promoter-reporter (luciferase) activity” value in data set [7] is on record as “significantly represses”. Besides, in data set [3] (3 mM × 24 hours (data not shown)), the ErbB2 transcript levels entry is “Virtually complete elimination of ErbB2 transcript levels”.
